Results published in the kinase profiling compilation of Christmann-Franck et al. (2016).

Assays:
Assay in all cases: KINOMEscan competition binding
Conditions in all cases: compound 10.0 µM
MYLK (human) = MYLK (human) (UniProt Q15746)
TAOK3 (human) = TAOK3 (human) (UniProt Q9H2K8)
FGFR1 (human) = FGFR1 (human) (UniProt P11362)
MAP4K1 (human) = MAP4K1 (human) (UniProt Q92918)
PRKCH (human) = PRKCH (human) (UniProt P24723)
MAP3K12 (human) = MAP3K12 (human) (UniProt Q12852)
MARK4 (human) = MARK4 (human) (UniProt Q96L34)
STK32B (human) = STK32B (human) (UniProt Q9NY57)
ADCK4 (human) = ADCK4 (human) (UniProt Q96D53)
CDK19 (human) = CDK19 (human) (UniProt Q9BWU1)
NTRK3 (human) = NTRK3 (human) (UniProt Q16288)
SRPK2 (human) = SRPK2 (human) (UniProt P78362)
SIK1 (human) = SIK1 (human) (UniProt P57059)
PRKG1 (human) = PRKG1 (human) (UniProt Q13976)
DCLK3 (human) = DCLK3 (human) (UniProt Q9C098)
ITK (human) = ITK (human) (UniProt Q08881)
MAPK8 (human) = MAPK8 (human) (UniProt P45983)
TESK1 (human) = TESK1 (human) (UniProt Q15569)
PHKG1 (human) = PHKG1 (human) (UniProt Q16816)
CAMK1D (human) = CAMK1D (human) (UniProt Q8IU85)
PTK2B (human) = PTK2B (human) (UniProt Q14289)
MUSK (human) = MUSK (human) (UniProt O15146)
[1] = target: JAK2 JH1 catalytic (human) (UniProt O60674)
TEC (human) = TEC (human) (UniProt P42680)
MYLK2 (human) = MYLK2 (human) (UniProt Q9H1R3)
HCK (human) = HCK (human) (UniProt P08631)
MAPK15 (human) = MAPK15 (human) (UniProt Q8TD08)
EPHA3 (human) = EPHA3 (human) (UniProt P29320)
[2] = target: TYK2 JH1 catalytic (human) (UniProt P29597)
TNK1 (human) = TNK1 (human) (UniProt Q13470)
MAP4K2 (human) = MAP4K2 (human) (UniProt Q12851)
PAK4 (human) = PAK4 (human) (UniProt O96013)
[3] = test system: ABL1 (human), P00519 [M351T]
NLK (human) = NLK (human) (UniProt Q9UBE8)
RPS6KA5 KD1 (human) = RPS6KA5 KD1 (human) (UniProt O75582)
FGFR3 (human) = FGFR3 (human) (UniProt P22607)
LTK (human) = LTK (human) (UniProt P29376)
PRKG2 (human) = PRKG2 (human) (UniProt Q13237)
AKT2 (human) = AKT2 (human) (UniProt P31751)
[4] = test system: KIT (human), P10721 [D816V]

Sequence of TAOK3 (human) (Q9H2K8 whole entry, looked up): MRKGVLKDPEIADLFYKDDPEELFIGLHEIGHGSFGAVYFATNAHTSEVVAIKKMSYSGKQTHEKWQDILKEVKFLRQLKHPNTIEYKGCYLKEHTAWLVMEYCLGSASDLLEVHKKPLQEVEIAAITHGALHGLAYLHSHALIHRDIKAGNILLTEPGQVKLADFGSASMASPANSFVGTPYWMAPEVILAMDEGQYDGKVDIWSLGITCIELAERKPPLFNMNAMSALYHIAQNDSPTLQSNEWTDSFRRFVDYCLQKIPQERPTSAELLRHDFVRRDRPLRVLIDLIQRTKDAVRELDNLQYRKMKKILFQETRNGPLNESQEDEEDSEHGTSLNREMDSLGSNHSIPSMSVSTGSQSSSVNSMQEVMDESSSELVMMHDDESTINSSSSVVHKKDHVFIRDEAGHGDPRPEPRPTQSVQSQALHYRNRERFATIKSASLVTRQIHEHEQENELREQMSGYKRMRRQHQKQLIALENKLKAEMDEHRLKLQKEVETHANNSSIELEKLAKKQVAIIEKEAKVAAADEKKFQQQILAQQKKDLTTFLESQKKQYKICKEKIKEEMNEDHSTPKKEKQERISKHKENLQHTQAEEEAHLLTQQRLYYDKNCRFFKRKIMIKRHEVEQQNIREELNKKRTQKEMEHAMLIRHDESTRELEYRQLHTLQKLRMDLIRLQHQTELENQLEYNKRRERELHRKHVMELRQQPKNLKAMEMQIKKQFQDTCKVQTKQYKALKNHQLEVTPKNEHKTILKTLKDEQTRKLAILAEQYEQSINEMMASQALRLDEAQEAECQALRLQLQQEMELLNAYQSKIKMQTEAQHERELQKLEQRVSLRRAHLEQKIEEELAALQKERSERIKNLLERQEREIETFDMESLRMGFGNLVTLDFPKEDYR
Sequence of MUSK (human) (O15146 whole entry, looked up): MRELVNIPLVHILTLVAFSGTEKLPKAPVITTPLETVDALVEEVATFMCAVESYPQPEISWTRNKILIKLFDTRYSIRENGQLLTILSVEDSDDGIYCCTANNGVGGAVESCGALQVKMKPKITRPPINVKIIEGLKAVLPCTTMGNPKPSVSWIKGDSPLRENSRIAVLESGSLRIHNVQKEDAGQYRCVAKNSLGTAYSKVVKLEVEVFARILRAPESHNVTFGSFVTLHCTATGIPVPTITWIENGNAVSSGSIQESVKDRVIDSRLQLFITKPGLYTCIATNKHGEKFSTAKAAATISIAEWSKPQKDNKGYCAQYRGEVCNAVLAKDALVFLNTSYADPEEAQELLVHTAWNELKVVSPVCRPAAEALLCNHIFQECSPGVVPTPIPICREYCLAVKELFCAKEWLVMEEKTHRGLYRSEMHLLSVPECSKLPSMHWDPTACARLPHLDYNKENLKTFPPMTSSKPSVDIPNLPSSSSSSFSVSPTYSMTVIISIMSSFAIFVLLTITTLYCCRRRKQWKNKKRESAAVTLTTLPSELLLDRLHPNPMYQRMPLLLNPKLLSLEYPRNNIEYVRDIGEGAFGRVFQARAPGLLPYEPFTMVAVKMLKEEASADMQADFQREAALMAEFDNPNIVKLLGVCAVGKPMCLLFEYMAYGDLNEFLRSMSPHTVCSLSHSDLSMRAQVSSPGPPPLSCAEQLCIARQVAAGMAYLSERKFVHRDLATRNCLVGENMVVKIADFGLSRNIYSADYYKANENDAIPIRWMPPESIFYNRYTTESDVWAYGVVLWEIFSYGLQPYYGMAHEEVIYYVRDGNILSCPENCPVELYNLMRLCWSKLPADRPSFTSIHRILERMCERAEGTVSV
Sequence of MYLK (human) (Q15746 whole entry, looked up): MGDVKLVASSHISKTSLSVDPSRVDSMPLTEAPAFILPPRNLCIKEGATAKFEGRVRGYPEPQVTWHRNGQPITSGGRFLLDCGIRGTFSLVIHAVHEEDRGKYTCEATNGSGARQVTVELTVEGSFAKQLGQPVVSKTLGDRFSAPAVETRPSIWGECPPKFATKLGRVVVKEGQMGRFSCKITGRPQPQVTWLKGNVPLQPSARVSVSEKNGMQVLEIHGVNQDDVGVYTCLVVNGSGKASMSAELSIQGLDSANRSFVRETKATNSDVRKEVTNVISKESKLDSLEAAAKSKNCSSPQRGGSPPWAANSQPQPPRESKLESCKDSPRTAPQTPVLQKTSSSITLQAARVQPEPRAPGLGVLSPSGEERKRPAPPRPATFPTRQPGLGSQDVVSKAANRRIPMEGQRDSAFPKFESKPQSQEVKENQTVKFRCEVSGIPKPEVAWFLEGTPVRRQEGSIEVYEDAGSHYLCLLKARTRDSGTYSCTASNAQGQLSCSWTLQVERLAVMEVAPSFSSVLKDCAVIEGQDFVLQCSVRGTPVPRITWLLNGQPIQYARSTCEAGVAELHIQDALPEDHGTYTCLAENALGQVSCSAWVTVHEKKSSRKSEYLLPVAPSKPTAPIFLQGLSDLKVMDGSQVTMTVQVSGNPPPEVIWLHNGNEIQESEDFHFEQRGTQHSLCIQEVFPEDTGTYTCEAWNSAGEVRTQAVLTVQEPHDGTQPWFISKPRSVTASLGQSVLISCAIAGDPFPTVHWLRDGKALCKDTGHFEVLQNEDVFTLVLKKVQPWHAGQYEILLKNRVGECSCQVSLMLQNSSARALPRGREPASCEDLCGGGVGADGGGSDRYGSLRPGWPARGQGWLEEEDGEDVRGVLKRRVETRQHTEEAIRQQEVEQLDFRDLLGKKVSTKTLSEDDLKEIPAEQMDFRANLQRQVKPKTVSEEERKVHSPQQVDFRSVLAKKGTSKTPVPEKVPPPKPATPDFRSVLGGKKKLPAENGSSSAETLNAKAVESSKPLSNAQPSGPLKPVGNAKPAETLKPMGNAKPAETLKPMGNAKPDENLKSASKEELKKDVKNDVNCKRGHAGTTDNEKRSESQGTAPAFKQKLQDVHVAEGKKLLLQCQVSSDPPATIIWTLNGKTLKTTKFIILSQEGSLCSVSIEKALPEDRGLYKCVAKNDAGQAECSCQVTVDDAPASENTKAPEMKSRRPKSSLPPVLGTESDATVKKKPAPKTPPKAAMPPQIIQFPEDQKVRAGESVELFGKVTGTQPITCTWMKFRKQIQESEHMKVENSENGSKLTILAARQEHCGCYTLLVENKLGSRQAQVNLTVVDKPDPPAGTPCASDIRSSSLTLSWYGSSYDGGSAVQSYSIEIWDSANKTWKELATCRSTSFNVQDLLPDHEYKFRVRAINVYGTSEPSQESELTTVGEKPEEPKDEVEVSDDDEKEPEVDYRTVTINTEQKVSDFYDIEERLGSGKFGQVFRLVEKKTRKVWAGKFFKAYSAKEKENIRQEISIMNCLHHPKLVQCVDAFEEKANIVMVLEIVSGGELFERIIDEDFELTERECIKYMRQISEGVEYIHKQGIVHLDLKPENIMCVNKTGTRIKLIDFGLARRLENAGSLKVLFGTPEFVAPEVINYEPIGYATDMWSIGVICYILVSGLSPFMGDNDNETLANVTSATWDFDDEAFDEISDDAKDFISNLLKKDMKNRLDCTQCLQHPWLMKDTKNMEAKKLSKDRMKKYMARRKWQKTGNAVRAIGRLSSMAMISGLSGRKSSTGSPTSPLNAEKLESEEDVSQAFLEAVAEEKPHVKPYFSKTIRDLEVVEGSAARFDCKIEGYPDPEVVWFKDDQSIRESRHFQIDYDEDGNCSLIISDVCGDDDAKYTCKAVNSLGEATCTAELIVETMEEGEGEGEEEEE
Sequence of SIK1 (human) (P57059 whole entry, looked up): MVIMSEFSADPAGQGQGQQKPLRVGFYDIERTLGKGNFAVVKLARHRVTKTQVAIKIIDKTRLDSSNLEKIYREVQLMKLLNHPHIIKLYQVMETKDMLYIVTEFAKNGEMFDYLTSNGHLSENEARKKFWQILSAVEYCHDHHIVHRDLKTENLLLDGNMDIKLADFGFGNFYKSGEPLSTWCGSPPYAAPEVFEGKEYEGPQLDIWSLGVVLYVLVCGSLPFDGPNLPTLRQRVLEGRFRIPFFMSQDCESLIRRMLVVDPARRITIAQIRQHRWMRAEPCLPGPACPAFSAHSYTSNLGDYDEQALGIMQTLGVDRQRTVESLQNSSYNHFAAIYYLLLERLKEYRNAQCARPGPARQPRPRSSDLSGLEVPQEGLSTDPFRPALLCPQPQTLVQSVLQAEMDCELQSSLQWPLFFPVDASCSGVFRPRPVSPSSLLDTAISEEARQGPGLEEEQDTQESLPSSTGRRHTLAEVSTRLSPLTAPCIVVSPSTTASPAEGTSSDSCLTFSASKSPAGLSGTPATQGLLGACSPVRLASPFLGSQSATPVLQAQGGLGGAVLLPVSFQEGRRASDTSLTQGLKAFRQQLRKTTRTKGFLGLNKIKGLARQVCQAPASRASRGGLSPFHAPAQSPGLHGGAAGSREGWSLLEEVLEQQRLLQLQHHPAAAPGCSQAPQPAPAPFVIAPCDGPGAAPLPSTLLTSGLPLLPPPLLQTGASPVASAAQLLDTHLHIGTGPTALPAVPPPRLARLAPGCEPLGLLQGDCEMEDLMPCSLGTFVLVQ
Sequence of STK32B (human) (Q9NY57 whole entry, looked up): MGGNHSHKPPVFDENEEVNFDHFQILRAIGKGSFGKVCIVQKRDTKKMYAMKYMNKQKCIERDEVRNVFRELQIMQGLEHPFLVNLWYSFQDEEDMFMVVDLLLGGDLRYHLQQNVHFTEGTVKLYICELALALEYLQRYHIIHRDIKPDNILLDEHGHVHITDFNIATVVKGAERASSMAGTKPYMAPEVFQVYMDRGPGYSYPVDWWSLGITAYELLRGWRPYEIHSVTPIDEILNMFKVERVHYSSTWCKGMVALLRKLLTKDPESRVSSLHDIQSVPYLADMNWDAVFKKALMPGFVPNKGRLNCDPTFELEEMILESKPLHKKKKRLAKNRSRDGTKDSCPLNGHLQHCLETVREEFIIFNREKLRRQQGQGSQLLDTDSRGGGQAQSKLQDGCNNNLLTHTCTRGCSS

| Structure (SMILES) | kinase still bound, per cent of control (MYLK (human)) | kinase still bound, per cent of control (TAOK3 (human)) | kinase still bound, per cent of control (FGFR1 (human)) | kinase still bound, per cent of control (MAP4K1 (human)) | kinase still bound, per cent of control (PRKCH (human)) | kinase still bound, per cent of control (MAP3K12 (human)) | kinase still bound, per cent of control (MARK4 (human)) | kinase still bound, per cent of control (STK32B (human)) | kinase still bound, per cent of control (ADCK4 (human)) | kinase still bound, per cent of control (CDK19 (human)) | kinase still bound, per cent of control (NTRK3 (human)) | kinase still bound, per cent of control (SRPK2 (human)) | kinase still bound, per cent of control (SIK1 (human)) | kinase still bound, per cent of control (PRKG1 (human)) | kinase still bound, per cent of control (DCLK3 (human)) | kinase still bound, per cent of control (ITK (human)) | kinase still bound, per cent of control (MAPK8 (human)) | kinase still bound, per cent of control (TESK1 (human)) | kinase still bound, per cent of control (PHKG1 (human)) | kinase still bound, per cent of control (CAMK1D (human)) | other results |
| --- | --- | --- | --- | --- | --- | --- | --- | --- | --- | --- | --- | --- | --- | --- | --- | --- | --- | --- | --- | --- | --- |
| CCN1CCN(Cc2ccc(Nc3ncc4c(n3)N(C)c3ccccc3C(=O)N4C)cc2C(F)(F)F)CC1 | 64% | 0.1% | 17% | 18% | 100% | 49% | 19% | 100% | 57% | 95% | 100% | 81% | 27% | 100% | 68% | 100% | 100% | 73% | 100% | 76% | kinase still bound, per cent of control (PTK2B (human)): 96%; kinase still bound, per cent of control (MUSK (human)): 100%; kinase still bound, per cent of control [1]: 0%; kinase still bound, per cent of control (TEC (human)): 99%; kinase still bound, per cent of control (MYLK2 (human)): 88%; kinase still bound, per cent of control (HCK (human)): 24%; kinase still bound, per cent of control (MAPK15 (human)): 100%; kinase still bound, per cent of control (EPHA3 (human)): 100%; kinase still bound, per cent of control [2]: 2%; kinase still bound, per cent of control (TNK1 (human)): 0.3%; kinase still bound, per cent of control (MAP4K2 (human)): 17%; kinase still bound, per cent of control (PAK4 (human)): 80%; kinase still bound, per cent of control [3]: 0.65%; kinase still bound, per cent of control (NLK (human)): 56%; kinase still bound, per cent of control (RPS6KA5 KD1 (human)): 100%; kinase still bound, per cent of control (FGFR3 (human)): 43%; kinase still bound, per cent of control (LTK (human)): 100%; kinase still bound, per cent of control (PRKG2 (human)): 86%; kinase still bound, per cent of control (AKT2 (human)): 100%; kinase still bound, per cent of control [4]: 46% |
| Cc1ccc(C(=O)Nc2cccc(C(F)(F)F)c2)cc1Nc1cncc(C(N)=O)c1 | 100% | 100% | 100% | 100% | 100% | 100% | 100% | 100% | 100% | 25% | 15% | 100% | 100% | 100% | 100% | 100% | 100% | 100% | 100% | 100% | kinase still bound, per cent of control (PTK2B (human)): 100%; kinase still bound, per cent of control (MUSK (human)): 100%; kinase still bound, per cent of control [1]: 100%; kinase still bound, per cent of control (TEC (human)): 100%; kinase still bound, per cent of control (MYLK2 (human)): 100%; kinase still bound, per cent of control (HCK (human)): 100%; kinase still bound, per cent of control (MAPK15 (human)): 100%; kinase still bound, per cent of control (EPHA3 (human)): 8.8%; kinase still bound, per cent of control [2]: 100%; kinase still bound, per cent of control (TNK1 (human)): 100%; kinase still bound, per cent of control (MAP4K2 (human)): 100%; kinase still bound, per cent of control (PAK4 (human)): 100%; kinase still bound, per cent of control [3]: 27%; kinase still bound, per cent of control (NLK (human)): 100%; kinase still bound, per cent of control (RPS6KA5 KD1 (human)): 100%; kinase still bound, per cent of control (FGFR3 (human)): 100%; kinase still bound, per cent of control (LTK (human)): 100%; kinase still bound, per cent of control (PRKG2 (human)): 100%; kinase still bound, per cent of control (AKT2 (human)): 100%; kinase still bound, per cent of control [4]: 100% |
| Cc1ccc(NC(=O)c2cccc(C(C)(C)C#N)c2)cc1Nc1ccc2ncn(C)c(=O)c2c1 | 98% | 100% | 59% | 63% | 100% | 74% | 100% | 100% | 100% | 35% | 38% | 100% | 30% | 100% | 100% | 100% | 100% | 100% | 100% | 100% | kinase still bound, per cent of control (PTK2B (human)): 100%; kinase still bound, per cent of control (MUSK (human)): 92%; kinase still bound, per cent of control [1]: 100%; kinase still bound, per cent of control (TEC (human)): 100%; kinase still bound, per cent of control (MYLK2 (human)): 100%; kinase still bound, per cent of control (HCK (human)): 3.1%; kinase still bound, per cent of control (MAPK15 (human)): 100%; kinase still bound, per cent of control (EPHA3 (human)): 5.1%; kinase still bound, per cent of control [2]: 85%; kinase still bound, per cent of control (TNK1 (human)): 100%; kinase still bound, per cent of control (MAP4K2 (human)): 62%; kinase still bound, per cent of control (PAK4 (human)): 72%; kinase still bound, per cent of control [3]: 3.3%; kinase still bound, per cent of control (NLK (human)): 48%; kinase still bound, per cent of control (RPS6KA5 KD1 (human)): 100%; kinase still bound, per cent of control (FGFR3 (human)): 100%; kinase still bound, per cent of control (LTK (human)): 100%; kinase still bound, per cent of control (PRKG2 (human)): 100%; kinase still bound, per cent of control (AKT2 (human)): 100%; kinase still bound, per cent of control [4]: 16% |
